Values of other authors as cited in patent US20030059487A1, “Composition and method for the treatment of hypercholesterolemia and hyperlipidemia in mammals” (priority 2001, published 2003).

Settings: background statement on Lipitor

## CC(C)c1c(C(=O)Nc2ccccc2)c(-c2ccccc2)c(-c2ccc(F)cc2)n1CC[C@@H](O)C[C@@H](O)CC(=O)O [atorvastatin]
  raises HDL cholesterol: 5 to 10%
  reduces LDL: 40 to 60%
  reduces triglycerides: 20 to 40%
